Assay results: PubChem BioAssay (NCI)
Where “and” joins values, the source holds several entries; their conditions need not be identical. Identical values can stand only once.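 Values below derive from 48-hour exposures of cells grown in 96-well plates, with endpoints linearly interpolated between the two concentrations bracketing the appropriate inhibition level. GI50 = concentration required for 50% inhibition of growth. TGI is the concentration that stops growth completely.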

Key:
Assay in all cases: DTP human tumour cell line panel, 48 h
HS 578T breast = tested on: HS 578T breast
MCF7 breast = tested on: MCF7 breast
HCT-116 colon = tested on: HCT-116 colon
COLO 205 colon = tested on: COLO 205 colon
HCT-15 colon = tested on: HCT-15 colon
OVCAR-4 ovarian = tested on: OVCAR-4 ovarian
SN12C renal = tested on: SN12C renal
HOP-62 NSCLC = tested on: HOP-62 NSCLC
DU-145 prostate = tested on: DU-145 prostate
TK-10 renal = tested on: TK-10 renal

| SMILES | TGI (HS 578T breast) [µM] | TGI (MCF7 breast) [µM] | TGI (HCT-116 colon) | TGI (COLO 205 colon) | TGI (HCT-15 colon) | TGI (OVCAR-4 ovarian) | TGI (SN12C renal) | TGI (HOP-62 NSCLC) | TGI (DU-145 prostate) [µM] | TGI (TK-10 renal) | GI50 (HS 578T breast) [µM] | GI50 (MCF7 breast) [µM] | GI50 (HCT-116 colon) | GI50 (COLO 205 colon) [µM] | GI50 (HCT-15 colon) [µM] | GI50 (OVCAR-4 ovarian) [µM] | GI50 (SN12C renal) [µM] | GI50 (HOP-62 NSCLC) [µM] | GI50 (DU-145 prostate) [µM] | GI50 (TK-10 renal) [µM] |
| --- | --- | --- | --- | --- | --- | --- | --- | --- | --- | --- | --- | --- | --- | --- | --- | --- | --- | --- | --- | --- |
| N=C1CCCC1C(=S)SCCC(N)=O (configuration not stated) | > 100 | > 100 | > 100 µM | > 100 µM | > 100 µM | > 100 µM | > 100 µM | > 100 µM | > 100 | > 100 µM |  |  |  |  |  |  |  |  |  |  |
| CC1CCC2C(C)C(=O)OC2C2(C)C(=O)C=CC12 (configuration not stated) | > 10 | > 10 | > 10 µM | > 10 µM | > 10 µM | > 10 µM | > 10 µM | > 10 µM | > 10 | > 10 µM |  |  |  |  |  |  |  |  |  |  |
| CC(C)(C)C[C@H]1N[C@@H](C(=O)NC2CCC(O)CC2)[C@H](c2cccc(Cl)c2F)[C@@]12C(=O)Nc1cc(Cl)ccc12 (some centres not stated) | 56.8 | 2.98 | 11.9 µM | 16 µM | 18.2 µM | 18.7 µM | 21.2 µM | 27.7 µM | 24.3 | 25 µM | 6.51 | 0.228 | 0.41 µM | 3.67 | 3.92 | 5.6 | 6.26 | 11.5 | 11.8 | 11.9 |
| C=C1C(=O)O[C@@H]2/C=C(/C)[C@@H](OC(C)=O)C/C=C(\C)C(O)[C@@H](OC(=O)/C(C)=C\C)C12 (some centres not stated) | > 100 | > 100 | 29.8 µM | 32 µM | 30.3 µM | > 100 µM | 43.1 µM | > 100 µM | > 100 | > 100 µM |  |  |  |  |  |  |  |  |  |  |
| O=C1/C(=C/c2ccccc2)Oc2cc(O)ccc21 | > 100 | > 100 | > 100 µM | > 100 µM | > 100 µM | > 100 µM | > 100 µM | > 100 µM | > 100 | > 100 µM |  |  |  |  |  |  |  |  |  |  |
| O=c1[nH]c(C2CCCN2)nc2c1oc1ccc(Cl)cc12 (configuration not stated) | > 100 | > 100 | > 100 µM | > 100 µM | > 100 µM | > 100 µM | > 100 µM | > 100 µM | > 100 | > 100 µM | 28.3 | 80.4 | > 90.7 µM | 26 | > 100 | > 39.1 | > 100 | 49.9 | > 100 | > 100 |
| [N-]=[N+]=CC(=O)CCC(N)C(=O)O (configuration not stated) | > 250 | > 250 | > 250 µM | > 128 µM | > 222 µM | > 206 µM | 248 µM | 43.2 µM | > 250 | 244 µM | 42.2 | 0.641 | 0.457 µM and 0.955 µM | 0.812 | 2 | 4.2 | 4.86 |  | 5.58 | 35.6 |
| COc1cc2c(cc1OCCNC(=O)/C=C1\C[C@H]3C=Nc4cc(OCc5ccccc5)c(OC)cc4C(=O)N3C1)N=C[C@@H]1CCCN1C2=O | 25.2 | 9.2 | 11.9 µM | 68.5 µM | > 100 µM | 65.5 µM | 15.8 µM | 23.6 µM | 37.3 | 36.7 µM | 5.7 | 2.62 | 2.93 µM | 14.9 | 37.4 | 19.7 | 2.68 | 4.27 | 19.4 | 7.07 |
| N#C/C(=C\c1ccc2[nH]ccc2c1)C(=O)NCCCCNC(=O)/C(C#N)=C/c1ccc2[nH]ccc2c1 | > 10 | > 10 | > 31.6 µM | > 31.6 µM | > 31.6 µM | > 31.6 µM | > 31.6 µM | > 31.6 µM | > 10 | > 31.6 µM |  |  |  |  |  |  |  |  |  |  |
| CN1CCN(C2=NC(=O)/C(=C\c3ccc(N(C)C)cc3)S2)CC1 | > 100 | > 100 | > 100 µM | > 100 µM | > 100 µM | > 100 µM | > 100 µM | > 100 µM | > 100 | > 100 µM | > 100 | > 100 | > 100 µM | > 100 | > 100 | > 100 | > 100 | > 100 | > 100 | > 100 |
| COC1=CC(=O)O/C1=C(\OC)C1OC1c1ccccc1 (configuration not stated) | > 100 | > 100 | > 100 µM | > 100 µM | > 100 µM | > 100 µM | > 100 µM | > 100 µM | > 100 | > 100 µM |  |  |  |  |  |  |  |  |  |  |
| C[C@@H]1C[C@@H]([C@H](O)CC2CC(=O)NC(=O)C2)C(=O)[C@@H](C)C1 |  | 7.15 | 4.35 µM and 1.42 µM | 2 µM and 1.47 µM | 15.9 µM and 9.96 µM | 4.97 µM and 1.2 µM | 7.38 µM and 0.793 µM | 3.63 µM and 1.67 µM |  | 2.39 µM and 1.01 µM | 0.488 | 0.216 | 0.197 µM | 0.224 | 0.284 | 0.299 | 0.106 | 0.26 | 0.247 | 0.22 |
